Values after ≈ are worked out from the molar mass of the structure shown.

The text below walks through data of ChEMBL document CHEMBL4831516, “Development of Membrane-Active Honokiol/Magnolol Amphiphiles as Potent Antibacterial Agents against Methicillin-Resistant Staphylococcus aureus (MRSA)” (J Med Chem, 2021).

The test system of the first data set is Staphylococcus aureus. The experiment in a line: Antibacterial activity against methicillin-resistant Staphylococcus aureus clinical isolate M-11 assessed as inhibition of visible growth incubated for 16 to 18 hrs by CLSI method. Type of data set: functional. The note with it: time 16-18 hrs, read-out: MIC100.
For the compound `C=CCc1ccc(OCC[N+](C)(C)CC(=O)NCCC)c(-c2ccc(OCC[N+](C)(C)CC(=O)NCCC)c(CC=C)c2)c1.[Br-].[Br-]`, the MIC amounted to 8 µg/mL.

With `C=CCc1ccc(O)c(-c2cc(CC=C)ccc2OCCC[N+](C)(C)CC(=O)NCCCC)c1.[Br-]`, the MIC came to 8 µg/mL.

In the next data set the test system is Staphylococcus aureus. The experiment in a line: Antibacterial activity against methicillin-resistant Staphylococcus aureus clinical isolate M-20 assessed as inhibition of visible growth incubated for 16 to 18 hrs by CLSI method. The format is functional. The note with it: time 16-18 hrs, read-out: MIC100.
In the case of `C=CCc1ccc(OCC[N+](C)(C)CC(=O)NCCC)c(-c2ccc(OCC[N+](C)(C)CC(=O)NCCC)c(CC=C)c2)c1.[Br-].[Br-]`, the MIC is 8 µg/mL.

Turning to `C=CCc1ccc(O)c(-c2cc(CC=C)ccc2OCCC[N+](C)(C)CC(=O)NCCCC)c1.[Br-]`, the MIC was 4 µg/mL.

The subject of another data set is Staphylococcus aureus. The experiment in a line: Antibacterial activity against methicillin-resistant Staphylococcus aureus clinical isolate M-14 assessed as inhibition of visible growth incubated for 16 to 18 hrs by CLSI method. Type of data set: functional. The settings on record: time 16-18 hrs, read-out: MIC100.
For `C=CCc1ccc(OCC[N+](C)(C)CC(=O)NCCC)c(-c2ccc(OCC[N+](C)(C)CC(=O)NCCC)c(CC=C)c2)c1.[Br-].[Br-]`, the MIC came to 8 µg/mL.

On to `C=CCc1ccc(O)c(-c2cc(CC=C)ccc2OCCC[N+](C)(C)CC(=O)NCCCC)c1.[Br-]`, for which the MIC was found to be 4 µg/mL.

System in a further data set: not listed separately
The data set is described as follows: Hemolytic activity in sheep RBC assessed as hemolysis incubated for 1 hr. Type of data set: ADME, cell-based, Ovis aries, Erythrocyte. The note with it: sheep red blood cells (erythrocytes).
Consider `C=CCc1ccc(OCC[N+](C)(C)CC(=O)NCCC)c(-c2ccc(OCC[N+](C)(C)CC(=O)NCCC)c(CC=C)c2)c1.[Br-].[Br-]`, for which the HC50 (as a rule, the concentration giving 50% haemolysis) at 1 h is 703 µg/mL.

Consider `C=CCc1ccc(O)c(-c2cc(CC=C)ccc2OCCC[N+](C)(C)CC(=O)NCCCC)c1.[Br-]`, for which the concentration for 50% haemolysis (HC50) at 1 h was determined as 596 µg/mL.

The next data set has as its system Salmonella enterica. The data set is described as follows: Antibacterial activity against Salmonella enterica 8389 assessed as inhibition of visible growth incubated for 16 to 18 hrs by CLSI method. The format is functional. The note with it: time 16-18 hrs, read-out: MIC100.
With `C=CCc1ccc(OCC[N+](C)(C)CC(=O)NCCC)c(-c2ccc(OCC[N+](C)(C)CC(=O)NCCC)c(CC=C)c2)c1.[Br-].[Br-]`, the MIC came out at 64 µg/mL.

As for `C=CCc1ccc(O)c(-c2cc(CC=C)ccc2OCCC[N+](C)(C)CC(=O)NCCCC)c1.[Br-]`, the MIC was 32 µg/mL.

Another data set relates to Stenotrophomonas maltophilia. The experiment in a line: Antibacterial activity against Stenotrophomonas maltophilia assessed as inhibition of visible growth incubated for 16 to 18 hrs by CLSI method. Type of data set: functional. The note with it: time 16-18 hrs, read-out: MIC100.
Regarding `C=CCc1ccc(OCC[N+](C)(C)CC(=O)NCCC)c(-c2ccc(OCC[N+](C)(C)CC(=O)NCCC)c(CC=C)c2)c1.[Br-].[Br-]`, the MIC stood at 64 µg/mL.

Take `C=CCc1ccc(O)c(-c2cc(CC=C)ccc2OCCC[N+](C)(C)CC(=O)NCCCC)c1.[Br-]`: the MIC was 32 µg/mL.

Another data set has as its system Staphylococcus aureus. The data set is described as follows: Antibacterial activity against methicillin-resistant Staphylococcus aureus clinical isolate M-15 assessed as inhibition of visible growth incubated for 16 to 18 hrs by CLSI method. The format is functional. The note with it: time 16-18 hrs, read-out: MIC100.
Consider `C=CCc1ccc(OCC[N+](C)(C)CC(=O)NCCC)c(-c2ccc(OCC[N+](C)(C)CC(=O)NCCC)c(CC=C)c2)c1.[Br-].[Br-]`, for which the MIC is 4 µg/mL.

`C=CCc1ccc(O)c(-c2cc(CC=C)ccc2OCCC[N+](C)(C)CC(=O)NCCCC)c1.[Br-]`: the MIC stood at 4 µg/mL.

System in the next data set: not listed separately
The experiment in a line: Selectivity index, HC50 for hemolytic activity in sheep RBC to MIC for antibacterial activity against Staphylococcus aureus ATCC29213. The format is toxicity. The note with it: sheep red blood cells (erythrocytes), read-out: Selectivity Index.
As for `C=CCc1ccc(OCC[N+](C)(C)CC(=O)NCCC)c(-c2ccc(OCC[N+](C)(C)CC(=O)NCCC)c(CC=C)c2)c1.[Br-].[Br-]`, the selectivity ratio came out at 43.9.

Regarding `C=CCc1ccc(O)c(-c2cc(CC=C)ccc2OCCC[N+](C)(C)CC(=O)NCCCC)c1.[Br-]`, the selectivity ratio is 298.

In another data set the test system is Staphylococcus aureus. The data set is described as follows: Antibacterial activity against Staphylococcus aureus ATCC29213 assessed as inhibition of visible growth incubated for 16 to 18 hrs by CLSI method. Type of data set: functional. The note with it: time 16-18 hrs, read-out: MIC100.
As for `C=CCc1ccc(OCC[N+](C)(C)CC(=O)NCCC)c(-c2ccc(OCC[N+](C)(C)CC(=O)NCCC)c(CC=C)c2)c1.[Br-].[Br-]`, the MIC was found to be 16 µg/mL.

As for `C=CCc1ccc(O)c(-c2cc(CC=C)ccc2OCCC[N+](C)(C)CC(=O)NCCCC)c1.[Br-]`, the MIC came out at 2 µg/mL.

The next data set deals with Micrococcus luteus. The data set is described as follows: Antibacterial activity against Micrococcus luteus assessed as inhibition of visible growth incubated for 16 to 18 hrs by CLSI method. The format is functional. The note with it: time 16-18 hrs, read-out: MIC100.
For `C=CCc1ccc(OCC[N+](C)(C)CC(=O)NCCC)c(-c2ccc(OCC[N+](C)(C)CC(=O)NCCC)c(CC=C)c2)c1.[Br-].[Br-]`, the MIC was 16 µg/mL.

Take `C=CCc1ccc(O)c(-c2cc(CC=C)ccc2OCCC[N+](C)(C)CC(=O)NCCCC)c1.[Br-]`: the MIC came out at 1 µg/mL.

The next data set has as its system Staphylococcus aureus. The data set is described as follows: Antibacterial activity against methicillin-resistant Staphylococcus aureus clinical isolate M-16 assessed as inhibition of visible growth incubated for 16 to 18 hrs by CLSI method. The format is functional. The note with it: time 16-18 hrs, read-out: MIC100.
As for `C=CCc1ccc(OCC[N+](C)(C)CC(=O)NCCC)c(-c2ccc(OCC[N+](C)(C)CC(=O)NCCC)c(CC=C)c2)c1.[Br-].[Br-]`, the MIC was 4 µg/mL.

For the compound `C=CCc1ccc(O)c(-c2cc(CC=C)ccc2OCCC[N+](C)(C)CC(=O)NCCCC)c1.[Br-]`, the MIC was found to be 4 µg/mL.

The subject of the next data set is Staphylococcus aureus. The experiment in a line: Antibacterial activity against methicillin-resistant Staphylococcus aureus clinical isolate M-18 assessed as inhibition of visible growth incubated for 16 to 18 hrs by CLSI method. The settings on record: time 16-18 hrs, read-out: MIC100. Type of data set: functional.
`C=CCc1ccc(OCC[N+](C)(C)CC(=O)NCCC)c(-c2ccc(OCC[N+](C)(C)CC(=O)NCCC)c(CC=C)c2)c1.[Br-].[Br-]`: the MIC amounted to 8 µg/mL.

As to `C=CCc1ccc(O)c(-c2cc(CC=C)ccc2OCCC[N+](C)(C)CC(=O)NCCCC)c1.[Br-]`, the MIC was found to be 4 µg/mL.

Another data set deals with Bacillus subtilis. The experiment in a line: Antibacterial activity against Bacillus subtilis assessed as inhibition of visible growth incubated for 16 to 18 hrs by CLSI method. The note with it: time 16-18 hrs, read-out: MIC100. Type of data set: functional.
For the compound `C=CCc1ccc(OCC[N+](C)(C)CC(=O)NCCC)c(-c2ccc(OCC[N+](C)(C)CC(=O)NCCC)c(CC=C)c2)c1.[Br-].[Br-]`, the MIC was 16 µg/mL.

`C=CCc1ccc(O)c(-c2cc(CC=C)ccc2OCCC[N+](C)(C)CC(=O)NCCCC)c1.[Br-]`: the MIC came out at 1 µg/mL.

The subject of a further data set is Staphylococcus aureus. The data set is described as follows: Antibacterial activity against methicillin-resistant Staphylococcus aureus clinical isolate M-13 assessed as inhibition of visible growth incubated for 16 to 18 hrs by CLSI method. The format is functional. The note with it: time 16-18 hrs, read-out: MIC100.
With `C=CCc1ccc(OCC[N+](C)(C)CC(=O)NCCC)c(-c2ccc(OCC[N+](C)(C)CC(=O)NCCC)c(CC=C)c2)c1.[Br-].[Br-]`, the MIC came out at 8 µg/mL.

With `C=CCc1ccc(O)c(-c2cc(CC=C)ccc2OCCC[N+](C)(C)CC(=O)NCCCC)c1.[Br-]`, the MIC stood at 4 µg/mL.

A further data set concerns Enterococcus faecalis. The data set is described as follows: Antibacterial activity against Enterococcus faecalis ATCC29212 assessed as inhibition of visible growth incubated for 16 to 18 hrs by CLSI method. Type of data set: functional. The settings on record: time 16-18 hrs, read-out: MIC100.
In the case of `C=CCc1ccc(OCC[N+](C)(C)CC(=O)NCCC)c(-c2ccc(OCC[N+](C)(C)CC(=O)NCCC)c(CC=C)c2)c1.[Br-].[Br-]`, the MIC amounted to 8 µg/mL.

In the case of `C=CCc1ccc(O)c(-c2cc(CC=C)ccc2OCCC[N+](C)(C)CC(=O)NCCCC)c1.[Br-]`, the MIC stood at 4 µg/mL.

A further data set concerns Staphylococcus aureus. The data set is described as follows: Antibacterial activity against methicillin-resistant Staphylococcus aureus clinical isolate M-19 assessed as inhibition of visible growth incubated for 16 to 18 hrs by CLSI method. Type of data set: functional. The settings on record: time 16-18 hrs, read-out: MIC100.
On to `C=CCc1ccc(OCC[N+](C)(C)CC(=O)NCCC)c(-c2ccc(OCC[N+](C)(C)CC(=O)NCCC)c(CC=C)c2)c1.[Br-].[Br-]`, for which the MIC was found to be 8 µg/mL.

For `C=CCc1ccc(O)c(-c2cc(CC=C)ccc2OCCC[N+](C)(C)CC(=O)NCCCC)c1.[Br-]`, the MIC came out at 4 µg/mL.

A further data set deals with Staphylococcus aureus. The experiment in a line: Antibacterial activity against methicillin-resistant Staphylococcus aureus clinical isolate M-17 assessed as inhibition of visible growth incubated for 16 to 18 hrs by CLSI method. Type of data set: functional. The note with it: time 16-18 hrs, read-out: MIC100.
With `C=CCc1ccc(OCC[N+](C)(C)CC(=O)NCCC)c(-c2ccc(OCC[N+](C)(C)CC(=O)NCCC)c(CC=C)c2)c1.[Br-].[Br-]`, the MIC came out at 4 µg/mL.

With `C=CCc1ccc(O)c(-c2cc(CC=C)ccc2OCCC[N+](C)(C)CC(=O)NCCCC)c1.[Br-]`, the MIC was found to be 4 µg/mL.

The test system of another data set is Streptococcus mutans. The data set is described as follows: Antibacterial activity against Streptococcus mutans. The format is functional.
Settings: not given
`CC(C)(C)c1ccc(CCc2ccc(C(C)(C)C)c(O)c2)cc1O` yielded an MIC of 8 µg/mL (≈ 24.5 µM).

Another data set concerns Escherichia coli. The data set is described as follows: Antibacterial activity against Escherichia coli ATCC25922 assessed as inhibition of visible growth incubated for 16 to 18 hrs by CLSI method. The note with it: time 16-18 hrs, read-out: MIC100. The format is functional.
As to `C=CCc1ccc(OCC[N+](C)(C)CC(=O)NCCC)c(-c2ccc(OCC[N+](C)(C)CC(=O)NCCC)c(CC=C)c2)c1.[Br-].[Br-]`, the MIC was 64 µg/mL.

Consider `C=CCc1ccc(O)c(-c2cc(CC=C)ccc2OCCC[N+](C)(C)CC(=O)NCCCC)c1.[Br-]`, for which the MIC was found to be 8 µg/mL.

Another data set has as its system Staphylococcus aureus. The experiment in a line: Antibacterial activity against methicillin-resistant Staphylococcus aureus clinical isolate M-12 assessed as inhibition of visible growth incubated for 16 to 18 hrs by CLSI method. The format is functional. The note with it: time 16-18 hrs, read-out: MIC100.
As to `C=CCc1ccc(OCC[N+](C)(C)CC(=O)NCCC)c(-c2ccc(OCC[N+](C)(C)CC(=O)NCCC)c(CC=C)c2)c1.[Br-].[Br-]`, the MIC amounted to 8 µg/mL.

For `C=CCc1ccc(O)c(-c2cc(CC=C)ccc2OCCC[N+](C)(C)CC(=O)NCCCC)c1.[Br-]`, the MIC worked out at 4 µg/mL.

In the next data set the test system is Salmonella enterica. The experiment in a line: Antibacterial activity against Salmonella enterica 349812 assessed as inhibition of visible growth incubated for 16 to 18 hrs by CLSI method. The settings on record: time 16-18 hrs, read-out: MIC100. Type of data set: functional.
Regarding `C=CCc1ccc(OCC[N+](C)(C)CC(=O)NCCC)c(-c2ccc(OCC[N+](C)(C)CC(=O)NCCC)c(CC=C)c2)c1.[Br-].[Br-]`, the MIC is 64 µg/mL.

On to `C=CCc1ccc(O)c(-c2cc(CC=C)ccc2OCCC[N+](C)(C)CC(=O)NCCCC)c1.[Br-]`, for which the MIC was 32 µg/mL.
